biological target: EGFR (UniProt P00533)
Sequence (P00533 whole entry, looked up): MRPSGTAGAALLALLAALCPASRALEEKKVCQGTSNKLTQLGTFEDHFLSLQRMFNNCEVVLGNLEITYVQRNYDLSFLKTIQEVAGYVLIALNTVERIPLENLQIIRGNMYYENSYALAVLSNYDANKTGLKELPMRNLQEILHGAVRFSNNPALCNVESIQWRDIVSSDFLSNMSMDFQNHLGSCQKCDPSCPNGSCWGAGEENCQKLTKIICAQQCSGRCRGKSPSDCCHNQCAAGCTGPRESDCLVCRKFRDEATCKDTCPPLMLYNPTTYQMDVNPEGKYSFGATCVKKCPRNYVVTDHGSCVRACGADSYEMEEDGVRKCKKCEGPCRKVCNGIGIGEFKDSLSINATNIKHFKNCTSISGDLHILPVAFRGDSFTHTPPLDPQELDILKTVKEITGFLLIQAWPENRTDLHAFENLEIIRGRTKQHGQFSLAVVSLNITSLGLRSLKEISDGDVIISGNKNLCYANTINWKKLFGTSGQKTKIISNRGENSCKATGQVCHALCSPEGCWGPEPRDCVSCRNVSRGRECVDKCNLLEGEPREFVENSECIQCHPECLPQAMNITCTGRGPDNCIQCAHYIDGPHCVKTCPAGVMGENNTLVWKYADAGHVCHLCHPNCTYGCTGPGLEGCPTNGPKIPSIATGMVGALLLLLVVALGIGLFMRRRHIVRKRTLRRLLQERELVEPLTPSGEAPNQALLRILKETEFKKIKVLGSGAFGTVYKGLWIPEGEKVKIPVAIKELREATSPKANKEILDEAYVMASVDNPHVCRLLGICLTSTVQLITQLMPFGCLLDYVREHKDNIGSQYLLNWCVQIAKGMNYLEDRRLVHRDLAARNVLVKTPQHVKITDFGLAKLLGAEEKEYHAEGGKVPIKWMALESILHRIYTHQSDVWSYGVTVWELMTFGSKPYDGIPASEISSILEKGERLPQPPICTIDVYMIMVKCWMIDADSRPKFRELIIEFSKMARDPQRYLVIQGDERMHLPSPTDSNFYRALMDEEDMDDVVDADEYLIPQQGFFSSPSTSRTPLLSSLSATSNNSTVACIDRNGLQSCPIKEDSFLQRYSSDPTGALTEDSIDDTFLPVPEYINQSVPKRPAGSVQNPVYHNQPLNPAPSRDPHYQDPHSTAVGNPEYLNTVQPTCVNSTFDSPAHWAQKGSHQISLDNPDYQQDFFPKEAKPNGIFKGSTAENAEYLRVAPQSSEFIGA

Compound	IC50 [µM]
O=C(Nc1cccc([N+](=O)[O-])c1)Nc1ncnc2nn3ccccc3c12	> 10
c1ccc(Cc2nc3ccc(Nc4ncnc5nn6ccccc6c45)cc3[nH]2)cc1	1 to 10
O=C(Nc1ccc(Br)cc1)Nc1ncnc2nn3ccccc3c12	> 10
c1ccc2c(CNNc3ncnc4nn5ccccc5c34)c[nH]c2c1	1 to 10
O=C(Nc1ccc(F)cc1)Nc1ncnc2nn3ccccc3c12	> 10
O=C(Nc1cccc(C(F)(F)F)c1)Nc1ncnc2nn3ccccc3c12	> 10
N#Cc1cccc(NC(=O)Nc2ncnc3nn4ccccc4c23)c1	> 10
Clc1cc(Nc2ncnc3nn4ccccc4c23)ccc1OCc1ccccc1	< 0.1
O=C(Nc1ccc(C(F)(F)F)cc1)Nc1ncnc2nn3ccccc3c12	> 10
Nc1ncnc2nn3ccccc3c12	> 10
